Results as given in ChEMBL document CHEMBL1201862, “PubChem BioAssay data set” (2004).
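Five compound concentrations were applied to cells in 96-well plates for 48 hours; endpoints were derived by simple linear interpolation of the resulting dose-response curve. At the GI50, growth is halved.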 The source made the active and inactive calls. Rule as the data show it: active = GI50 up to about 1.1 µM and inactive = higher.

Tests used:
Assay in all cases: DTP human tumour cell line panel, 48 h
[1] = tested on: CCRF-CEM
[2] = tested on: IGROV-1
[3] = tested on: SK-MEL-2
[4] = tested on: 786-0
[5] = tested on: SNB-75
[6] = tested on: M14
[7] = tested on: KM12
[8] = tested on: UACC-257
[9] = tested on: UACC-62
[10] = tested on: HT-29
[11] = tested on: EKVX
[12] = tested on: NCI-H23
[13] = tested on: NCI-H226
[14] = tested on: MCF7
[15] = tested on: CAKI-1
[16] = tested on: BT-549
[17] = tested on: OVCAR-8
[18] = tested on: TK-10
[19] = tested on: PC-3

Measured: GI50

Clc1sc(Cl)c2c1[C@@H](Cl)C[C@@H]2Cl
inactive: [1] 23.7 µM | [2] 48.1 µM | [3] > 100 µM | [4] > 100 µM | [5] 33.3 µM | [6] > 100 µM | [7] > 100 µM | [8] > 100 µM | [9] 13.4 µM | [10] > 100 µM | [11] 62.5 µM | [12] 53.8 µM | [13] 57.3 µM | [14] 52.4 µM | [15] 94.6 µM | [16] > 100 µM | [17] > 100 µM | [18] > 100 µM

CCCOC(=O)c1cc(C(=CCC[C@H]2CC[C@@]3(C)[C@@H](CC[C@@H]4[C@@H]3CC[C@]3(C)[C@@H](C(C)CCCC(C)C)CC[C@@H]43)C2)c2cc(Cl)c(O)c(C(=O)OCCC)c2)cc(Cl)c1O (some centres undefined)
inactive: [1] > 50 µM | [2] > 50 µM | [3] > 50 µM | [4] > 50 µM | [5] > 50 µM | [7] > 50 µM | [9] > 50 µM | [10] > 50 µM | [11] > 50 µM | [19] > 50 µM | [12] > 50 µM | [13] > 50 µM | [15] > 50 µM | [16] > 50 µM | [17] > 50 µM

CCOC(=O)CCC(NC(=O)c1ccc(Nc2cnc3cc(C(F)(F)F)ccc3n2)cc1)C(=O)OCC (centres undefined)
inactive: [1] > 100 µM | [2] 42 µM | [3] > 100 µM | [4] 9.75 µM | [5] 1.9 µM | [6] 35.9 µM | [7] 61.9 µM | [8] > 100 µM | [9] > 10 µM | [10] > 100 µM | [11] > 84.7 µM | [12] 27.7 µM | [13] > 79.6 µM | [14] > 31.6 µM | [15] 24.7 µM | [16] 18.5 µM | [17] 27.2 µM | [18] > 87.9 µM

C=CCON(C(=O)OC(C)(C)C)C(C)(C)C
inactive: [1] > 100 µM | [2] > 100 µM | [3] > 100 µM | [4] > 100 µM | [5] > 100 µM | [6] > 100 µM | [7] > 100 µM | [8] > 100 µM | [9] > 100 µM | [10] > 100 µM | [11] > 100 µM | [19] > 100 µM | [12] > 100 µM | [13] > 100 µM | [15] > 100 µM | [16] > 100 µM | [17] > 100 µM | [18] > 100 µM
